Assay results from patent US20170152258A9, “Substituted Pyridopyrazines as Syk Inhibitors” (HUTCHISON MEDIPHARMA LIMITED, priority 2012, published 2017).

Target: T1, Flt-3 (Homo sapiens, UniProt P36888)
T1 sequence (P36888 27-993): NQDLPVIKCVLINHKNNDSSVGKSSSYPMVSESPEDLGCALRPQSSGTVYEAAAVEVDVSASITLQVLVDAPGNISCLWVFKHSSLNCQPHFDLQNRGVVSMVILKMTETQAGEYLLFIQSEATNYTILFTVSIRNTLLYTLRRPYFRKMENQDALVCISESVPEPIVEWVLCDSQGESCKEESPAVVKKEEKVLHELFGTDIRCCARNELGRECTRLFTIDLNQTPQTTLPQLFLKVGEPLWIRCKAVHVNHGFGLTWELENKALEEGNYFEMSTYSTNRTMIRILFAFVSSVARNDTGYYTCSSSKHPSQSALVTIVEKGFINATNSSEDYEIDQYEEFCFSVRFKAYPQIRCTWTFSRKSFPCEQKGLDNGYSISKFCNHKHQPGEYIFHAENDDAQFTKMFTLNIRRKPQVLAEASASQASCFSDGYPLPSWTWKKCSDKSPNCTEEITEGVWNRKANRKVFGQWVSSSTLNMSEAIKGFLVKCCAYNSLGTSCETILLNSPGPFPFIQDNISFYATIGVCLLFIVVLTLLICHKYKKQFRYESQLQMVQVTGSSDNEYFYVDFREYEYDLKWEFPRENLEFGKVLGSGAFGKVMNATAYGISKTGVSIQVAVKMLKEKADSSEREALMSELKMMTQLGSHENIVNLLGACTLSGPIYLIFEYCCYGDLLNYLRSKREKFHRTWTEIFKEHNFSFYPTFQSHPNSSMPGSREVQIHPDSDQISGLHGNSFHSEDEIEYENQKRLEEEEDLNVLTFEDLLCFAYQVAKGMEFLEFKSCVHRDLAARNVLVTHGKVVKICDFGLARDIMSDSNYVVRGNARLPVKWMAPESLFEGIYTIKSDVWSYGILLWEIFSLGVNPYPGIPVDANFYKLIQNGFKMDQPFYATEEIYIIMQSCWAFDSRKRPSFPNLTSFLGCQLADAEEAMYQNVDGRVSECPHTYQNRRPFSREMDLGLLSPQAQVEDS
Experiment: Z-Lyte Kinase Assay of Flt-3
Assay type: biochemical
Conditions: Flt3 kinase
Procedure: Z-Lyte Kinase Assay of Flt-3:
Serially dilute the test compounds to 4 folds of the concentrations desired, keeping the DMSO concentration at 8%. The final concentrations were 3, 1, 0.33, 0.11, 0.037, 0.012, 0.004, 0.0014 μM, and the final concentration of DMSO was 2%.
Prepare Kinase/Peptide Mixture by diluting the kinase to 0.12 μg/mL and the Z-LYTE™ Tyr 2 peptide to 4 μM in 1.33× Kinase Buffer. Mix gently by pipetting.
Prepare ATP Solution by diluting the 10 mM of ATP in 1.33× Kinase Buffer to 1.88 mM.
• a. Add 2.5 μL of 4× test Cpds to each well except C1, C2, C3 wells • Add 2.5 μL of 8% DMSO to C1, C2, C3 wells • b. Put the 384-plate on ice • c. Add 5 μL of P/K mixture to each test Cpd wells and C1, C2 wells • d. Add 5 μL of PP Solution to C3 well • e. Add 2.5 μL of 1.33× kinase buffer to C1 and C3 wells • f. Add 2.5 μL of 4×ATP Solution to each test Cpd wells and C2 well, respectively. • Shake the plate for 30 Sec and centrifuge (1500 rpm, 1 min) • g. Seal the plate to protect from the light and incubate the plate for 1 hour at RT (25-30° C.).
• a. Add 5 μL of the Development solution to all wells • b. Shake the plate for 30 Sec and centrifuge (1500 rpm, 1 min) • c. Seal the plate to protect from the light and incubate the plate for 1 hour at RT (25-30° C.).
• a. […]
IC50 Value: determined with add-in software for Microsoft Excel, XLfit™ (version 2.0) from ID Business Solutions (Guildford, UK)

| IC50 | Structure (SMILES) |
| --- | --- |
| 880 nM | CC(C)(O)c1ccc(-c2cc3nccnc3c(OC[C@@H]3CN(S(C)(=O)=O)CCO3)n2)cc1 [Compound 219] |
| 885 nM | CC(=O)N1CCO[C@H](COc2nc(-c3ccc4c(c3)CCOC4(C)C)cc3nccnc23)C1 [Compound 300] |
